Measurements from patent US20260138990A1, “TRICYCLIC FUSED IMIDAZOLE COMPOUNDS AS CD38 MODULATORS AND USES THEREOF” (AEOVIAN PHARMACEUTICALS, INC., priority 2023, published 2026).

How the values were obtained:
mouse CD38 = target: T1, mouse CD38 (Mus musculus, UniProt P56528); assay: NAD+ cyclase activity assay with mouse recombinant CD38 protein (ε-NAD fluorescence); type: biochemical; conditions: 0.6 nM mouse CD38, substrate ε-NAD, 30 min preincubation, fluorescence 300/410 nm
T1 construct: purchased Bio-Techne GmbH 4947-AC
T1 sequence (P56528 1-304): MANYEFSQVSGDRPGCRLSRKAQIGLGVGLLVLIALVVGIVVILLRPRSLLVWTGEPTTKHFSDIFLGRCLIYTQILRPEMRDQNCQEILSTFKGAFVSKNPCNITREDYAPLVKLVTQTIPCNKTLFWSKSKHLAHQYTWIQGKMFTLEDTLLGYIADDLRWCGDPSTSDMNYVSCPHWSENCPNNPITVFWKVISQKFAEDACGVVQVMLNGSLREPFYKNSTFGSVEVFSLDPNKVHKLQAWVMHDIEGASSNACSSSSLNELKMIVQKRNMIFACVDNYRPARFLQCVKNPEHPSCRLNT
Protocol: (§1) Example 4: NAD^+ Cydase Activity Assay with Human or Mouse Recombinant CD38 Protein
(§2) The following assay was used to determine the ability of compounds of the invention to inhibit the hydrolysis of NAD^+ by the human or mouse enzyme, CD38.
(§3) Reaction buffer: 40 mM HEPES/NaOH pH 7.5, 250 mM sucrose, 0.01% Tween
(§4) Final concentrations: 0.6 nM mouse CD38 (4947-AC, Bio-Techne GmbH) 1.9 nM human CD38 (AVI2404, Bio-Techne GmbH)
(§5) Substrate: […] Nicotinamide 1,N6-ethenoadenine dinucleotide (&-NAD)
(§6) Read-out: Fluorescence intensity (extinction 300 nm/emission 410 nm)
(§7) Required reaction buffer, required CD38 concentration in reaction buffer and required e-NAD concentration in reaction buffer were prepared. Thereafter, 8 μL of CD38 in reaction buffer was added to High Control and compound concentration wells in 384 well plate (Corning #4514, 384 well, nonbinding surface, low volume, round bottom) and 8 μL of reaction buffer to Low Control. Compound dilutions were transferred via pintool technology that transfers 42.5 nL compound dilutions (12-point dose-response with factor three dilutions in 100% DMSO) well-to-well. Plate was subsequently shaken for 15 s at 1450 rpm and sealed for incubation for 30 min at room temperature. Thereafter, 2 μL of e-NAD in reaction buffer were added with Integra Voyager. After shaking for 15 s at 1450 rpm, plate was sealed, and assay signal were measured continuously with PHERAstar® fluorescence intensity module (extinction 300 nm/emission 410 nm).
(§8) Dose-response curves were constructed using twelve-pointfactor three dilutions in triplicates per plate. High control (full enzyme activity) was set to assay signal of CD38 and e-NAD in presence of vehicle (DMSO) and Low control (full enzyme inhibition) was set to assay signal of e-NAD and vehicle (DMSO) in absence of CD38. For data analysis, fluorescent signal of traces corresponding to each compound concentration and High and Low control were monitored over time. Each run, High Control (full enzyme activity) was fitted to Linear equation via GraphPad Prism to determine CD38 activity from the slope and determine the time interval of linear phase of reaction to account for minor fluctuations. Thereafter, slopes of all compound concentrations were determined via fitting to same linear equation (GraphPad Prism) over the same time interval as determined for High control. […] Unless otherwise stated, fitting of curves were fixed to 100%-inhibition and unlocked for 0%-inhibition.

human CD38 = target: T2, human CD38 (Homo sapiens, UniProt P28907); assay: NAD+ cyclase activity assay with human recombinant CD38 protein (ε-NAD fluorescence); type: biochemical; conditions: 1.9 nM human CD38, substrate ε-NAD, 30 min preincubation, fluorescence 300/410 nm
T2 construct: purchased Bio-Techne GmbH AVI2404
T2 sequence (P28907 1-300): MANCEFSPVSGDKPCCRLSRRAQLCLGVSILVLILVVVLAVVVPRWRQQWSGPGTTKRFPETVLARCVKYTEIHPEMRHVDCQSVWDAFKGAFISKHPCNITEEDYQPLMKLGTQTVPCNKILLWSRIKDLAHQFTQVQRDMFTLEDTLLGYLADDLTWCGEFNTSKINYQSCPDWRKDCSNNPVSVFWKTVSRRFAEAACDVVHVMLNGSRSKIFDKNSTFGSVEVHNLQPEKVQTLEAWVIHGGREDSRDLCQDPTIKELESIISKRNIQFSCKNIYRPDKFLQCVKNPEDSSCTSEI
Protocol: as §1, §2, §3, §4, §5, §6, §7, §8

SMILES	IC50 (mouse CD38)	IC50 (human CD38)
O=C(Nc1cnc2c(c1)OCCO2)c1ccc2c(c1)-c1cncn1CCO2 [Compound 31A, N-(2,3-Dihydro-[1,4]dioxino[2,3-b]pyridin-7-yl)-5,6-dihydrobenzo[f]imidazo[1,5-d][1,4]oxazepine-10-carboxamide]	1 to 10 nM	< 30 nM
O=C(Nc1ccc2c(c1)OCC2)c1ccc2c(c1)-c1cncn1CCO2 [Compound 32A, N-(2,3-Dihydrobenzofuran-6-yl)-5,6-dihydrobenzo[f]imidazo[1,5-d][1,4]oxazepine-10-carboxamide]	1 to 10 nM	< 30 nM
O=C(Nc1ccc2c(c1)COC2)c1ccc2c(c1)-c1cncn1CCO2 [Compound 33A, N-(1,3-Dihydroisobenzofuran-5-yl)-5,6-dihydrobenzo[f]imidazo[1,5-d][1,4]oxazepine-10-carboxamide]	1 to 10 nM	< 30 nM
O=C(Nc1ccc2nc[nH]c2c1)c1ccc2c(c1)-c1cncn1CCO2 [Compound 34A, N-(1H-Benzo [d]imidazol-6-yl)-5,6-dihydrobenzo[f]imidazo[1,5-d][1,4]oxazepine-10-carboxamide]	1 to 10 nM	< 30 nM
CN(C)c1nc2ccc(C(=O)N[C@@H]3CCCOC3)cc2n2cncc12 [Compound 35A, (R)-4-(Dimethylamino)-N-(tetrahydro-2H-pyran-3-yl)imidazo[1,5-a]quinoxaline-8-carboxamide]	> 100 nM	> 1000 nM
Cn1ccc(NC(=O)c2ccc3c(c2)-c2cncn2CCO3)cc1=O [Compound 36A, N-(1-Methyl-2-oxo-1,2-dihydropyridin-4-yl)-5,6-dihydrobenzo[f]imidazo[1,5-d][1,4]oxazepine-10-carboxamide]	< 1 nM	< 30 nM
CCCS(=O)(=O)N[C@H]1CC[C@H](NC(=O)c2ccc3c(c2)-c2cncn2CCO3)CC1 [Compound 37A, N-((1r,4r)-4-(Propylsulfonamido)cyclohexyl)-5,6-dihydrobenzo[f]imidazo[1,5-d][1,4]oxazepine-10-carboxamide]	1 to 10 nM	< 30 nM
CC1(C)Cn2cncc2-c2cc(C(=O)N[C@@H]3CCCOC3)ccc2O1 [Compound 38A, (R)-6,6-Dimethyl-N-(tetrahydro-2H-pyran-3-yl)-5,6-dihydrobenzo[f]imidazo[1,5-d][1,4]oxazepine-10-carboxamide]	10 to 100 nM	> 1000 nM
O=C(Nc1ccc2ncoc2c1)c1ccc2c(c1)-c1cncn1CCO2 [Compound 39A, N-(Benzo[d]oxazol-6-yl)-5,6-dihydrobenzo[f]imidazo[1,5-d][1,4]oxazepine-10-carboxamide]	1 to 10 nM	< 30 nM
O=C(Nc1cnc2scnc2c1)c1ccc2c(c1)-c1cncn1CCO2 [Compound 40A, N-(Thiazolo[5,4-b]pyridin-6-yl)-5,6-dihydrobenzo[f]imidazo[1,5-d][1,4]oxazepine-10-carboxamide]	1 to 10 nM	< 30 nM
O=C(Nc1ccc2ncsc2c1)c1ccc2c(c1)-c1cncn1CCO2 [Compound 41A, N-(Benzo[d]thiazol-6-yl)-5,6-dihydrobenzo[f]imidazo[1,5-d][1,4]oxazepine-10-carboxamide]	1 to 10 nM	< 30 nM
COCCO[C@H]1CC[C@H](NC(=O)c2cc(Br)c3c(c2)-c2cncn2CCO3)CC1 [Compound 46A, 8-Bromo-N-((1r,4r)-4-(2-methoxyethoxy)cyclohexyl)-5,6-dihydrobenzo[f]imidazo[1,5-d][1,4]oxazepine-10-carboxamide]	< 1 nM	< 30 nM
COCCNc1nc2cc(NC(=O)c3ccc4c(c3)-c3cncn3CCO4)ccc2s1 [Compound 48A, N-(2-((2-Methoxyethyl)amino)benzo[d]thiazol-5-yl)-5,6-dihydrobenzo[f]imidazo[1,5-d][1,4]oxazepine-10-carboxamide]	1 to 10 nM	< 30 nM
CN(C)c1nc2cc(NC(=O)c3ccc4c(c3)-c3cncn3CCO4)ccc2s1 [Compound 49A, N-(2-(Dimethylamino)benzo[d]thiazol-5-yl)-5,6-dihydrobenzo[f]imidazo[1,5-d][1,4]oxazepine-10-carboxamide]	10 to 100 nM	< 30 nM
COCCO[C@H]1CC[C@H](NC(=O)c2cc3c(c(C4CC4)c2)OCCn2cncc2-3)CC1 [Compound 50A, 8-Cyclopropyl-N-((1r,4r)-4-(2-methoxyethoxy)cyclohexyl)-5,6-dihydrobenzo[f]imidazo[1,5-d][1,4]oxazepine-10-carboxamide]	1 to 10 nM	30 to 100 nM
CC1(C)COc2ccc(C(=O)N[C@@H]3CCCOC3)cc2-c2cncn21 [Compound 51A, (R)-5,5-Dimethyl-N-(tetrahydro-2H-pyran-3-yl)-5,6-dihydrobenzo[f]imidazo[1,5-d][1,4]oxazepine-10-carboxamide]	> 100 nM	> 1000 nM
O=C(N[C@H]1CC[C@H](C(F)(F)F)CC1)c1ccc2c(c1)-c1cncn1CCO2 [Compound 52A, N-((1r,4r)-4-(Trifluoromethyl)cyclohexyl)-5,6-dihydrobenzo[f]imidazo[1,5-d][1,4]oxazepine-10-carboxamide]	1 to 10 nM	< 30 nM
COCCO[C@H]1CC[C@H](NC(=O)c2cc(C)c3c(c2)-c2cncn2CCO3)CC1 [Compound 53A, N-((1r,4r)-4-(2-Methoxyethoxy)cyclohexyl)-8-methyl-5,6-dihydrobenzo[f]imidazo[1,5-d][1,4]oxazepine-10-carboxamide]	< 1 nM	< 30 nM
COCCO[C@H]1CC[C@H](NC(=O)c2cc(OC)c3c(c2)-c2cncn2CCO3)CC1 [Compound 54A, 8-Methoxy-N-((1r,4r)-4-(2-methoxyethoxy)cyclohexyl)-5,6-dihydrobenzo[f]imidazo[1,5-d][1,4]oxazepine-10-carboxamide]	1 to 10 nM	< 30 nM
COCCO[C@H]1CC[C@H](NC(=O)c2cc3c(c(C(F)(F)F)c2)OCCn2cncc2-3)CC1 [Compound 55A, N-((1r,4r)-4-(2-Methoxyethoxy)cyclohexyl)-8-(trifluoromethyl)-5,6-dihydrobenzo[f]imidazo[1,5-d][1,4]oxazepine-10-carboxamide]	< 1 nM	30 to 100 nM
O=C(N[C@H]1CC[C@H](CCO)CC1)c1ccc2c(c1)-c1cncn1CCO2 [Compound 56A, N-((1r,4r)-4-(2-Hydroxyethyl)cyclohexyl)-5,6-dihydrobenzo[f]imidazo[1,5-d][1,4]oxazepine-10-carboxamide]	1 to 10 nM	< 30 nM
COCCO[C@H]1CC[C@H](NC(=O)c2cc(F)c3c(c2)-c2cncn2CCO3)CC1 [Compound 57A, 8-Fluoro-N-((1r,4r)-4-(2-methoxyethoxy)cyclohexyl)-5,6-dihydrobenzo[f]imidazo[1,5-d][1,4]oxazepine-10-carboxamide]	< 1 nM	< 30 nM
CC(C)(O)[C@H]1CC[C@H](NC(=O)c2ccc3c(c2)-c2cncn2CCO3)CC1 [Compound 58A, N-((1r,4r)-4-(2-Hydroxypropan-2-yl)cyclohexyl)-5,6-dihydrobenzo[f]imidazo[1,5-d][1,4]oxazepine-10-carboxamide]	< 1 nM	< 30 nM
COCCNC(=O)[C@H]1CC[C@H](NC(=O)c2ccc3c(c2)-c2cncn2CCO3)CC1 [Compound 59A, N-((1r,4r)-4-((2-Methoxyethyl)carbamoyl)cyclohexyl)-5,6-dihydrobenzo[f]imidazo[1,5-d][1,4]oxazepine-10-carboxamide]	1 to 10 nM	< 30 nM
